{
  "source": "patent US11001590B2",
  "about": "“Pyrazolopyrimidine derivatives” (BAYER ANIMAL HEALTH GMBH, priority 2016, dated 2021)",
  "key": {"C. elegans Slo-1a": {"molecular_target": "C. elegans Slo-1a (Caenorhabditis elegans, UniProt Q95V25)", "sequence (Q95V25 whole entry)": "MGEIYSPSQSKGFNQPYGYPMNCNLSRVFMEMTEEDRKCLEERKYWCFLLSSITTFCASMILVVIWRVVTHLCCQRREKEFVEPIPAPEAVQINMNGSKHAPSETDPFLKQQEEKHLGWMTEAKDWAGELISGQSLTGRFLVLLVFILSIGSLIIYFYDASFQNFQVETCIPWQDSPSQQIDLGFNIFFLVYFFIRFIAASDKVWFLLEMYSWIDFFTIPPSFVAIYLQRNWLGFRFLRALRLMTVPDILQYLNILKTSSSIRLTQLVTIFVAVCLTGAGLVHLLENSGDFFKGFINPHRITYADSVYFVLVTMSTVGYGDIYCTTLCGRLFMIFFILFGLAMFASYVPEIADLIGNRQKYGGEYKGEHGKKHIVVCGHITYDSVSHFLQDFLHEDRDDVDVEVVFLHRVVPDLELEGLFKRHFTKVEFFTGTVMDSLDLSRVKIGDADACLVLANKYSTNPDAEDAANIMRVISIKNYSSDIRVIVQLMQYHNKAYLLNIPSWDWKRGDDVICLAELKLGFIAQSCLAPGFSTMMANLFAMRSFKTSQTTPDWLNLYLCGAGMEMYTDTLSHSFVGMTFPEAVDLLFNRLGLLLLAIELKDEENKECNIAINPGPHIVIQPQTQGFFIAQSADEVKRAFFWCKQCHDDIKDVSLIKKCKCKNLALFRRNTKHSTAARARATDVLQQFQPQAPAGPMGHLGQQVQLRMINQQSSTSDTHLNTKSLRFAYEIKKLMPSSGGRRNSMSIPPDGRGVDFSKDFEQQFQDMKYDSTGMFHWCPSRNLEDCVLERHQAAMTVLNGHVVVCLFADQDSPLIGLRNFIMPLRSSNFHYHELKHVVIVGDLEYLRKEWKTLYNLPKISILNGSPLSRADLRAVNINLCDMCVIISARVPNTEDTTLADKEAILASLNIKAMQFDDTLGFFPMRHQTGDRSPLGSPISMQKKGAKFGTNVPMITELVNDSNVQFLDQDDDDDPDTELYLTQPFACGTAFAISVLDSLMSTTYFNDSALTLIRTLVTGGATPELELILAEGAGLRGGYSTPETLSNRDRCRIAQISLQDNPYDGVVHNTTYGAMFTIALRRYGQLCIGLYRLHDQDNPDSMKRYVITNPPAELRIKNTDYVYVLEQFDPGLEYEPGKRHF", "test": "In vitro assay 1: C. elegans Slo-1a, action at a recombinant C. elegans CHO cell line (membrane potential measurement)"}, "[1]": {"test": "log P by HPLC on reversed phase columns (Method L0; [a] acidic, [b] neutral range)", "description": "Calibration was done with straight-chain alkan-2-ones (with 3 to 16 carbon atoms) with known log P values (measurement of log P values using retention times with linear interpolation between successive alkanones). Lambda-max-values were determined using UV-spectra from 200 nm to 400 nm and the peak values of the chromatographic signals."}, "[2]": {"system": "Dirofilaria immitis microfilariae", "test": "In vitro assay 3: Dirofilaria immitis microfilariae (DIROIM L1), motility", "details": "72 h, reduction of motility vs negative control, 72 h incubation"}},
  "data": [
    {"smiles": "CCS(=O)(=O)c1nn2c(C(C)C)c(C(=O)N[C@H]3CCc4ccccc43)cnc2c1-c1cc(Cl)cc(Cl)c1", "note": "[Example 211]", "values": [
      {"measurement": "EC50", "setting": "C. elegans Slo-1a", "result": 1260, "unit": "nM"},
      {"measurement": "chromatographic logP", "setting": "[1]", "result": 4.62},
      {"measurement": "EC50", "setting": "[2]", "result": "< 10", "unit": "µg/mL"}
    ]},
    {"smiles": "CCS(=O)(=O)c1nn2c(C(C)C)c(C(=O)N[C@H]3CCOc4ccccc43)cnc2c1-c1cc(Cl)cc(Cl)c1", "note": "[Example 212]", "values": [
      {"measurement": "EC50", "setting": "C. elegans Slo-1a", "result": 501, "unit": "nM"},
      {"measurement": "chromatographic logP", "setting": "[1]", "result": 4.37},
      {"measurement": "EC50", "setting": "[2]", "result": "< 10", "unit": "µg/mL"}
    ]},
    {"smiles": "CC(C)c1c(C(=O)N[C@H]2CCOc3ccccc32)cnc2c(-c3cc(Cl)cc(Cl)c3)c(S(=O)(=O)C(C)C)nn12", "note": "[Example 217]", "values": [
      {"measurement": "EC50", "setting": "C. elegans Slo-1a", "result": 398, "unit": "nM"},
      {"measurement": "chromatographic logP", "setting": "[1]", "result": 4.57},
      {"measurement": "EC50", "setting": "[2]", "result": "< 10", "unit": "µg/mL"}
    ]},
    {"smiles": "Cc1nn2c(C(C)C)c(C(=O)N[C@H]3CCOc4ccccc43)cnc2c1-c1ccc(F)cc1Cl", "note": "[Example 218]", "values": [
      {"measurement": "EC50", "setting": "C. elegans Slo-1a", "result": 1.58, "unit": "nM"},
      {"measurement": "chromatographic logP", "setting": "[1]", "result": 4.51},
      {"measurement": "EC50", "setting": "[2]", "result": "< 0.1", "unit": "µg/mL"}
    ]},
    {"smiles": "Cc1nn2c(C(C)C)c(C(=O)N[C@H]3CCOc4ccccc43)cnc2c1-c1ccc(Cl)c(F)c1", "note": "[Example 220]", "values": [
      {"measurement": "EC50", "setting": "C. elegans Slo-1a", "result": 20, "unit": "nM"},
      {"measurement": "chromatographic logP", "setting": "[1]", "result": 5.08},
      {"measurement": "EC50", "setting": "[2]", "result": "< 1", "unit": "µg/mL"}
    ]},
    {"smiles": "Cc1nn2c(C(C)C)c(C(=O)N[C@H]3CCOc4ccccc43)cnc2c1-c1cnc(F)c(F)c1", "note": "[Example 221]", "values": [
      {"measurement": "EC50", "setting": "C. elegans Slo-1a", "result": 10, "unit": "nM"},
      {"measurement": "chromatographic logP", "setting": "[1]", "result": 4.13},
      {"measurement": "EC50", "setting": "[2]", "result": "< 1", "unit": "µg/mL"}
    ]},
    {"smiles": "CCC(C)c1c(C(=O)N[C@H]2CCc3ccccc32)cnc2c(-c3c(F)cccc3Cl)c(C)nn12", "note": "(stereo partly drawn) [Example 222]", "values": [
      {"measurement": "EC50", "setting": "C. elegans Slo-1a", "result": 39.8, "unit": "nM"},
      {"measurement": "chromatographic logP", "setting": "[1]", "result": 4.98},
      {"measurement": "EC50", "setting": "[2]", "result": "< 0.1", "unit": "µg/mL"}
    ]},
    {"smiles": "Cc1nn2c(C(C)C)c(C(=O)N[C@H]3CCc4ccccc43)cnc2c1-c1c(Cl)cccc1Cl", "note": "[Example 223]", "values": [
      {"measurement": "EC50", "setting": "C. elegans Slo-1a", "result": 12.6, "unit": "nM"},
      {"measurement": "chromatographic logP", "setting": "[1]", "result": 4.87},
      {"measurement": "EC50", "setting": "[2]", "result": "< 1", "unit": "µg/mL"}
    ]},
    {"smiles": "Cc1nn2c(CC(C)C)c(C(=O)N[C@H]3CCc4ccccc43)cnc2c1-c1c(F)cccc1Cl", "note": "[Example 224]", "values": [
      {"measurement": "EC50", "setting": "C. elegans Slo-1a", "result": 31.6, "unit": "nM"},
      {"measurement": "chromatographic logP", "setting": "[1]", "result": 4.82},
      {"measurement": "EC50", "setting": "[2]", "result": "< 1", "unit": "µg/mL"}
    ]},
    {"smiles": "Cc1nn2c(CC(C)C)c(C(=O)N[C@H]3CCOc4ccccc43)cnc2c1-c1c(F)cccc1Cl", "note": "[Example 225]", "values": [
      {"measurement": "EC50", "setting": "C. elegans Slo-1a", "result": 12.6, "unit": "nM"},
      {"measurement": "chromatographic logP", "setting": "[1]", "result": 4.56},
      {"measurement": "EC50", "setting": "[2]", "result": "< 0.1", "unit": "µg/mL"}
    ]},
    {"smiles": "Cc1nn2c(Cc3ccc(F)cc3)c(C(=O)N[C@H]3CCc4ccccc43)cnc2c1-c1c(F)cccc1Cl", "note": "[Example 227]", "values": [
      {"measurement": "EC50", "setting": "C. elegans Slo-1a", "result": 2000, "unit": "nM"},
      {"measurement": "chromatographic logP", "setting": "[1]", "result": 4.92},
      {"measurement": "EC50", "setting": "[2]", "result": "< 10", "unit": "µg/mL"}
    ]},
    {"smiles": "Cc1nn2c(Cc3ccc(F)cc3)c(C(=O)N[C@H]3CCOc4ccccc43)cnc2c1-c1c(F)cccc1Cl", "note": "[Example 228]", "values": [
      {"measurement": "EC50", "setting": "C. elegans Slo-1a", "result": 3160, "unit": "nM"},
      {"measurement": "chromatographic logP", "setting": "[1]", "result": 4.72},
      {"measurement": "EC50", "setting": "[2]", "result": "< 1", "unit": "µg/mL"}
    ]},
    {"smiles": "CC(C)c1c(C(=O)N[C@H]2CCc3ccccc32)cnc2c(-c3cc(Cl)cc(Cl)c3)c(S(C)(=O)=O)nn12", "note": "[Example 229]", "values": [
      {"measurement": "EC50", "setting": "C. elegans Slo-1a", "result": 63.1, "unit": "nM"},
      {"measurement": "chromatographic logP", "setting": "[1]", "result": 4.35},
      {"measurement": "EC50", "setting": "[2]", "result": "< 1", "unit": "µg/mL"}
    ]},
    {"smiles": "Cc1nn2c(C(C)C)c(C(=O)N[C@H]3CCOc4ccccc43)cnc2c1-c1cnccc1Cl", "note": "[Example 231]", "values": [
      {"measurement": "EC50", "setting": "C. elegans Slo-1a", "result": 15.8, "unit": "nM"},
      {"measurement": "chromatographic logP", "setting": "[1]", "result": 3.9},
      {"measurement": "EC50", "setting": "[2]", "result": "< 1", "unit": "µg/mL"}
    ]},
    {"smiles": "Cc1nn2c(C(C)C)c(C(=O)N[C@H]3CCOc4ccccc43)cnc2c1-c1ccc2c(c1)N(C)CC2", "note": "[Example 238]", "values": [
      {"measurement": "EC50", "setting": "C. elegans Slo-1a", "result": 158, "unit": "nM"},
      {"measurement": "chromatographic logP", "setting": "[1]", "result": 4.13},
      {"measurement": "EC50", "setting": "[2]", "result": "< 10", "unit": "µg/mL"}
    ]},
    {"smiles": "Cc1nn2c(C(C)C)c(C(=O)N[C@H]3CCOc4ccccc43)cnc2c1-c1ccc2c(c1)OCO2", "note": "[Example 239]", "values": [
      {"measurement": "EC50", "setting": "C. elegans Slo-1a", "result": 31.6, "unit": "nM"},
      {"measurement": "chromatographic logP", "setting": "[1]", "result": 4.08},
      {"measurement": "EC50", "setting": "[2]", "result": "< 10", "unit": "µg/mL"}
    ]},
    {"smiles": "Cc1nn2c(C(C)C)c(C(=O)N[C@H]3CCOc4ccccc43)cnc2c1-c1ccc2cc[nH]c2c1", "note": "[Example 243]", "values": [
      {"measurement": "EC50", "setting": "C. elegans Slo-1a", "result": 631, "unit": "nM"},
      {"measurement": "chromatographic logP", "setting": "[1]", "result": 3.76},
      {"measurement": "EC50", "setting": "[2]", "result": "< 10", "unit": "µg/mL"}
    ]},
    {"smiles": "Cc1nn2c(C(C)C)c(C(=O)N[C@H]3CCOc4ccccc43)cnc2c1-c1ccc2c(c1F)OCO2", "note": "[Example 245]", "values": [
      {"measurement": "EC50", "setting": "C. elegans Slo-1a", "result": 20, "unit": "nM"},
      {"measurement": "chromatographic logP", "setting": "[1]", "result": 4.18},
      {"measurement": "EC50", "setting": "[2]", "result": "< 1", "unit": "µg/mL"}
    ]},
    {"smiles": "COc1cccc(-c2c(C)nn3c(C(C)C)c(C(=O)N[C@H]4CCOc5ccccc54)cnc23)c1Cl", "note": "[Example 247]", "values": [
      {"measurement": "EC50", "setting": "C. elegans Slo-1a", "result": 10, "unit": "nM"},
      {"measurement": "chromatographic logP", "setting": "[1]", "result": 4.19},
      {"measurement": "EC50", "setting": "[2]", "result": "< 1", "unit": "µg/mL"}
    ]},
    {"smiles": "Cc1nn2c(C(C)C)c(C(=O)N[C@H]3CCOc4ccccc43)cnc2c1-c1ccc2c(c1)NCC2", "note": "[Example 248]", "values": [
      {"measurement": "EC50", "setting": "C. elegans Slo-1a", "result": 50.1, "unit": "nM"},
      {"measurement": "chromatographic logP", "setting": "[1]", "result": 2.2},
      {"measurement": "EC50", "setting": "[2]", "result": "< 10", "unit": "µg/mL"}
    ]}
  ]
}
